Reference: patent publication US11519922B2, “Methods for identifying risk of chemotherapy-induced cardiotoxicity and targeted medical intervention” (Detroit R&D, Inc., priority 2018, dated 2022)

Tests used:
[1] = test system: plasma of breast cancer patient; assay: 14,15-DHET nanowell label-free analysis of patient plasma; type: in vivo, human; details: Patient #4, 10-fold diluted plasma, after vs before 3 months DOX, n=4
Protocol: The plasma samples of Patient #4 (10-fold diluted) who developed DOX-dependent cardiotoxicity 3 and 6 months after completion of the 3 months DOX treatment were obtained before and after 3 months DOX treatment (FIG. 4).
The bare gold surface of the 8-channel 90 nm or 200 nm nanowell electrode (Detroit R&D) was coated with a self-assembly monolayer (SAM) by incubating the electrode with 10 mM of 11-mercaptoundecanoic acid (MUA) (Sigma) for 1 hr at room temperature and activated using 50 mM EDC and 50 mM NHS. The 14,15-DHET IgG (Detroit R&D) (FIG. 6A) or TnI IgG (Detroit R&D) (FIG. 6B) in PBS (2.5 μg/ml) was added to the EDC/NHS-activated electrode. The IgG level to obtain optimal results was experimentally obtained by using electrodes coated with various concentrations of IgG ranging 1 to 10 μg/ml.

H9c2 rat cardiomyocytes [2] = assay: MTT cell viability assay; type: cell-based; details: 1 μM DOX 2 hr, then fresh media 24 hr; compared to untreated control cells
Protocol: Cell viability was determined using the 3-[4,5-dimethylthiazol-2-yl]-2,5-diphenyltetrazolium bromide (MTT) assay (13) for cells incubated with and without 1 μM of DOX in media for 2 hr followed by fresh media for another 24 hours. The DOX treated cells maintained more than 90% cell viability compared to untreated control cells.
Rat H9c2 cell line was purchased from American Type Culture Collection (Manassas, Va.) and cultured on polystyrene culture plates in a humidified incubator at 37° C. in an atmosphere of 5% CO2 and 95% air. The H9c2 cells were grown in high glucose DMEM supplemented with 4.5 g/l glucose, 0.15% sodium bicarbonate, 0.11% sodium pyruvate, 10% fetal bovine serum, […], 100 IU/ml penicillin and 10 μg/ml streptomycin. When cells reached 80-90% confluency, media was replaced with media containing 1 μM DOX (Sigma) dissolved in DMSO. Cells were treated for 2 hr and collected immediately (0 hr) or washed and kept for 2, 6 and 24 hr in media without DOX.
The effect of DOX on cell viability was determined by 3-[4,5-dimethylthiazol-2-yl]-2,5-diphenyltetrazolium bromide (MTT) assay (13).

H9c2 rat cardiomyocytes [3] = assay: Cell hypertrophy assay (cell surface area, ImageJ); type: cell-based; details: 1 μM DOX 2 hr
Protocol: Cells were treated for 2 hr with media containing 1 μM DOX, washed and kept for 2, 6 and 24 hr in media without DOX. Cell sizes (cell surface area) were measured using image J software. Results expressed as mean±SD (n=6-44);
Increased cell surface area (hypertrophy) was found at 6 hr and 24 hr after DOX treatment (p<0.05) whereas no changes were observed after 2 hr (˜100 cells measured/group) (FIG. 2).
For cell hypertrophy assay, rat H9c2 cells grown overnight in a plate containing a glass cover slip were fixed at 2, 6 and 24 hr after 2 hr 1 μM DOX treatment and stained with hematoxylin and eosin and images were taken using a using a Zeiss Axiovert microscope. ImageJ software was used to measure the surface area of the cells.

## COc1cccc2c1C(=O)c1c(O)c3c(c(O)c1C2=O)C[C@@](O)(C(=O)CO)C[C@@H]3O[C@H]1C[C@H](N)[C@H](O)[C@H](C)O1 [DOX, doxorubicin]
[1]
  increase of plasma 14,15-DHET level (nanowell): ~20 fold
H9c2 rat cardiomyocytes [2]
  cell viability: more than 90%
H9c2 rat cardiomyocytes [3]; 2 hr recovery
  cell surface area (hypertrophy): no changes
H9c2 rat cardiomyocytes [3]; 6 hr and 24 hr recovery
  cell surface area (hypertrophy): increased
